Experimental data taken from PubChem BioAssay AID1918995 (Molecular Pharmacology Branch, DTP, NCI, 2023).

System: 324938-238-R-J1-PDC complex spheroid growth, % test/control
Experiment: Anticancer human tumor 324938-238-R-J1-PDC patient-derived bladder carcinoma cell line growth inhibition [AhR]
Conditions: for IC50: curve of first compound; for viability, T/C: stronger effect = lower value
Method in brief: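 Spheroids combined tumor cells with HUVEC endothelial cells and human MSCs as stroma. AhR antagonists were paired with standard or investigational drugs, each dosed in half-log steps down from near clinical Cmax, or from 10 microM where Cmax was unknown.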

[1] = second compound 0.1 µM, first compound 0.0316 µM
[2] = second compound 0.1 µM, first compound 0.1 µM
[3] = second compound 0.316 µM, first compound 0.0316 µM
[4] = second compound 0.316 µM, first compound 0.1 µM
[5] = second compound 1 µM, first compound 0.0316 µM
[6] = second compound 1 µM, first compound 0.1 µM
[7] = second compound 3.16 µM, first compound 0.0316 µM
[8] = second compound 3.16 µM, first compound 0.1 µM
[9] = second compound 10 µM, first compound 0.0316 µM
[10] = second compound 10 µM, first compound 0.1 µM
[11] = second compound 0.1 µM, first compound 0.316 µM
[12] = second compound 0.1 µM, first compound 1 µM
[13] = second compound 0.1 µM, first compound 3.16 µM
[14] = second compound 0.1 µM, first compound 10 µM
[15] = second compound 0.316 µM, first compound 0.316 µM
[16] = second compound 0.316 µM, first compound 1 µM
[17] = second compound 0.316 µM, first compound 3.16 µM
[18] = second compound 0.316 µM, first compound 10 µM
[19] = second compound 1 µM, first compound 0.316 µM
[20] = second compound 1 µM, first compound 1 µM
[21] = second compound 1 µM, first compound 3.16 µM
[22] = second compound 1 µM, first compound 10 µM
[23] = second compound 3.16 µM, first compound 0.316 µM
[24] = second compound 3.16 µM, first compound 1 µM
[25] = second compound 3.16 µM, first compound 3.16 µM
[26] = second compound 3.16 µM, first compound 10 µM
[27] = second compound 10 µM, first compound 0.316 µM
[28] = second compound 10 µM, first compound 1 µM
[29] = second compound 10 µM, first compound 3.16 µM
[30] = second compound 10 µM, first compound 10 µM
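Note: spheroids exposed to agents for seven days before viability read.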

| SMILES | IC50 (second compound 0.1 µM) [µM] | IC50 (second compound 0.316 µM) [µM] | IC50 (second compound 1 µM) [µM] | IC50 (second compound 3.16 µM) [µM] | IC50 (second compound 10 µM) [µM] | viability, T/C [1] [%] | viability, T/C [2] [%] | viability, T/C [3] [%] | viability, T/C [4] [%] | viability, T/C [5] [%] | viability, T/C [6] [%] | viability, T/C [7] [%] | viability, T/C [8] [%] | viability, T/C [9] [%] | viability, T/C [10] [%] | viability, T/C [11] [%] | viability, T/C [12] [%] | viability, T/C [13] [%] | viability, T/C [14] [%] | viability, T/C [15] [%] | further results |
| --- | --- | --- | --- | --- | --- | --- | --- | --- | --- | --- | --- | --- | --- | --- | --- | --- | --- | --- | --- | --- | --- |
| CC[C@@]1(O)C(=O)OCc2c1cc1n(c2=O)Cc2cc3c(CN(C)C)c(O)ccc3nc2-1 + Cc1cncc(-c2nc(NCCc3c[nH]c4ccccc34)c3ncn(C(C)C)c3n2)c1 | > 0.1 | > 0.1 | > 0.1 | > 0.1 | < 0.000316 | 83.3 | 102 | 77.8 | 93.5 | 87.6 | 96.9 | 79 | 79.4 | 3.79 | 10.3 | – | – | – | – | – | viability, T/C (second compound 0.1 µM, first compound 0.000316 µM): 108%; viability, T/C (second compound 0.1 µM, first compound 0.001 µM): 151%; viability, T/C (second compound 0.1 µM, first compound 0.00316 µM): 99.7%; viability, T/C (second compound 0.1 µM, first compound 0.01 µM): 117%; viability, T/C (second compound 0.316 µM, first compound 0.000316 µM): 70.6%; viability, T/C (second compound 0.316 µM, first compound 0.001 µM): 91.9%; viability, T/C (second compound 0.316 µM, first compound 0.00316 µM): 124%; viability, T/C (second compound 0.316 µM, first compound 0.01 µM): 93.2%; viability, T/C (second compound 1 µM, first compound 0.000316 µM): 116%; viability, T/C (second compound 1 µM, first compound 0.001 µM): 110%; viability, T/C (second compound 1 µM, first compound 0.00316 µM): 114%; viability, T/C (second compound 1 µM, first compound 0.01 µM): 93.4%; viability, T/C (second compound 3.16 µM, first compound 0.000316 µM): 97.8%; viability, T/C (second compound 3.16 µM, first compound 0.001 µM): 71.7%; viability, T/C (second compound 3.16 µM, first compound 0.00316 µM): 87.3%; viability, T/C (second compound 3.16 µM, first compound 0.01 µM): 90.9%; viability, T/C (second compound 10 µM, first compound 0.000316 µM): 5.23%; viability, T/C (second compound 10 µM, first compound 0.001 µM): 3.61%; viability, T/C (second compound 10 µM, first compound 0.00316 µM): 4.43%; viability, T/C (second compound 10 µM, first compound 0.01 µM): 3.43% |
| COc1cc(C2c3cc4c(cc3C(OC3OC5COC(C)OC5C(O)C3O)C3COC(=O)C23)OCO4)cc(OC)c1O (stereo not given) + Cc1cncc(-c2nc(NCCc3c[nH]c4ccccc34)c3ncn(C(C)C)c3n2)c1 | > 10 | > 10 | > 10 | > 10 | < 0.0316 | 104 | 113 | 109 | 128 | 126 | 102 | 86 | 95.2 | 3.73 | 10.1 | 96.8 | 126 | 106 | 123 | 109 | viability, T/C [16]: 87.2%; viability, T/C [17]: 95.1%; viability, T/C [18]: 87.8%; viability, T/C [19]: 84.9%; viability, T/C [20]: 107%; viability, T/C [21]: 103%; viability, T/C [22]: 106%; viability, T/C [23]: 94.2%; viability, T/C [24]: 81.8%; viability, T/C [25]: 106%; viability, T/C [26]: 81.6%; viability, T/C [27]: 6.66%; viability, T/C [28]: 4%; viability, T/C [29]: 6.93%; viability, T/C [30]: 15% |
| Nc1ccn(C2OC(CO)C(O)C2(F)F)c(=O)n1 (stereo not given) + Cc1cncc(-c2nc(NCCc3c[nH]c4ccccc34)c3ncn(C(C)C)c3n2)c1 | > 10 | > 10 | > 10 | > 10 | < 0.0316 | 105 | 81.5 | 79.4 | 61.6 | 95.1 | 65.9 | 95.2 | 74.3 | 45.5 | 53.7 | 88.5 | 51.6 | 83.9 | 84.1 | 79.2 | viability, T/C [16]: 87.2%; viability, T/C [17]: 93.3%; viability, T/C [18]: 111%; viability, T/C [19]: 79.8%; viability, T/C [20]: 84.1%; viability, T/C [21]: 69.6%; viability, T/C [22]: 84.5%; viability, T/C [23]: 119%; viability, T/C [24]: 84.3%; viability, T/C [25]: 120%; viability, T/C [26]: 72.5%; viability, T/C [27]: 49.7%; viability, T/C [28]: 49.3%; viability, T/C [29]: 62.2%; viability, T/C [30]: 62.7% |
